Usually viability stands for a read-out of living cells in per cent, often relative to untreated cells.

The text below walks through data of paper PMC12040169 (PLOS Biology, 2025).

The nature of this data set: in vitro. Particulars: human, hela cells, % viability.

As for `COc1ccc(-c2cnccc2-n2ccnc2)cn1` [CBK177147], the viability at 28.5 h, 10 µM came out at 113%.
The figure for `CCc1ccc(-c2cnccc2-n2ccnc2)cc1` [CBK177151] is 93%; for `COc1ccccc1-c1cnccc1-n1ccnc1` [CBK177153] it is 100%; for `c1ccc(OCCOc2cccnc2N2CCNCC2)cc1` [CBK200000C] it is 90.1%.
The value for `O=C1CCc2cccc(OCCOc3nccnc3N3CCNCC3)c21` [CBK200001G] was 101%.
The value for `FC(F)(F)c1ccc(N2CCNCC2)nc1OCCOc1ccc2ccccc2c1` [CBK200002A] was 92.1%.
On to `c1ccc2c(c1)CCC2Oc1cncc(N2CCNCC2)n1` (centres unmarked) [CBK200005G], for which the viability at 28.5 h, 10 µM worked out at 91%.
The value for `C(#Cc1csc(COc2cncc(N3CCNCC3)n2)c1)c1ccccc1` [CBK200006G] was 92.5%; that for `c1cncc(CNc2cccc(OCCOc3nccnc3N3CCNCC3)c2)c1` [CBK200008] was 89.2%; that for `N#Cc1ccccc1Cn1ccc2c(N3CCNCC3)cccc21` [CBK200015C] was 102%.
Turning to `O=S(=O)(Cc1ccccc1)c1cc2c(N3CCNCC3)nccc2s1` [CBK200017C], the viability at 28.5 h, 10 µM was found to be 91.9%.
As to `CC(C)(C)c1ccccc1[S+]([O-])c1cc2c(N3CCNCC3)nccc2s1` (centres unmarked) [CBK200018C], the viability at 28.5 h, 10 µM was 103%.
The value for `O=C(O)c1ccc(NS(=O)(=O)c2ccc(Cl)cc2)cc1O` [CBK200023] was 106%.
The figure for `CC1(C)CC(=O)c2sc(NS(=O)(=O)c3sc(Cl)cc3Br)nc2C1` [CBK200029] is 109%; for `COc1ccc2c(c1)CCc1sc(NS(=O)(=O)c3cccc(Cl)c3C)nc1-2` [CBK200033] it is 84.3%; for `Cc1cc(Cl)cc(Cl)c1S(=O)(=O)Nc1nc2c(s1)C(=O)CC(C)(C)C2` [CBK200034] it is 104%.
The value for `C=CCN(c1ccccc1)S(=O)(=O)c1ccc(C(C)(C)CC)cc1` [CBK200036] was 95.7%; that for `CCC(C)(C)c1ccc(S(=O)(=O)Nc2ccc(F)cc2F)cc1` [CBK200039] was 95.7%; that for `CC(=O)c1sccc1NS(=O)(=O)c1ccc2ccccc2c1` [CBK200042] was 89.5%.
In the case of `Cc1c(Cl)cccc1S(=O)(=O)NC1=NC(=O)C(CC(=O)Nc2ccccc2Cl)S1` (centres unmarked) [CBK200043], the viability at 28.5 h, 10 µM was 107%.
The value for `CCOC(=O)C1CCN(S(=O)(=O)c2ccc(C(C)C)cc2)CC1` [CBK200044] was 86.4%.
The value for `O=[N+]([O-])c1ccc(S(=O)(=O)Nc2nnc(Cc3ccc(Cl)cc3)s2)cc1` [CBK200046] was 93.2%.
The value for `O=S(=O)(Nc1nnc(C(F)(F)F)s1)c1ccc(Br)cc1` [CBK200047] was 89.6%.
For `O=S(=O)(Nc1nnc(Cc2ccc(Cl)cc2)s1)c1ccc(Cl)cc1` [CBK200048], the viability at 28.5 h, 10 µM came to 90.2%.
For the molecule `Cc1c(Cl)cccc1S(=O)(=O)Nc1nc(C(C)Sc2nccn2C)ns1` (centres unmarked) [CBK200052], the viability at 28.5 h, 10 µM was found to be 88.5%.
The figure for `CCCC(=O)NCC(C)c1nsc(NS(=O)(=O)c2cccc(Cl)c2C)n1` (centres unmarked) [CBK200053] is 96%; for `O=S(=O)(c1ccc2ccccc2c1)N1CCCCC1CO` (centres unmarked) [CBK200055] it is 100%.
The value for `O=C(OCCC1SC(NC2CC3C=CC2C3)=NC1=O)c1cc(C(F)(F)F)ccc1C(F)(F)F` (centres unmarked) [CBK200058T] was 88.1%.
The value for `O=C(OCCC1SC(NC2CC3C=CC2C3)=NC1=O)c1c(F)cccc1Cl` (centres unmarked) [CBK200061T] was 88.7%.
Take `CC(C)(C)c1ccc(S(=O)(=O)N2CCCC[C@H]2COC(=O)c2nccnc2C(=O)O)cc1` [CBK200065]: the viability at 28.5 h, 10 µM was 91.6%.
Regarding `CC(C)(C)c1ccc(S(=O)(=O)N2CCCCC2CCO)cc1[N+](=O)[O-]` (centres unmarked) [CBK200067], the viability at 28.5 h, 10 µM is 93.9%.
The figure for `C1CCc2nnc(C34CC5CC(CC(C5)C3)C4)n2CC1` [CBK200068] is 83.5%.
The figure for `CN(C)CCCNC(=O)C1CCCCN1S(=O)(=O)c1ccc(C(C)(C)C)cc1` (centres unmarked) [CBK200070] is 101%; for `C=C(C)Cn1c(SCC(C)C)nnc1-c1ccccc1OC` [CBK200071] it is 91.5%.
The value for `C=C(C)Cn1c(SC(C)C)nnc1-c1ccccc1OC` [CBK200072] was 97.1%; that for `C=C(C)Cn1c(SC(C)C)nnc1-c1cccnc1` [CBK200073] was 85.7%; that for `C=C(C)Cn1c(SCC(C)C)nnc1-c1ccccc1Cl` [CBK200078] was 92.4%.
Turning to `C=C(C)Cn1c(SC(C)C)nnc1-c1ccccc1Cl` [CBK200079], the viability at 28.5 h, 10 µM is 99.9%.
The value for `C=C(C)Cn1c(SCC(C)C)nnc1-c1ccccc1OC(F)(F)F` [CBK200080] was 97.7%; that for `C=C(C)Cn1c(SC(C)C)nnc1-c1ccccc1OC(F)(F)F` [CBK200081] was 114%.
The figure for `C=C(C)Cn1c(Cc2ccccc2)nnc1SCC(C)C` [CBK200082] is 102%; for `C=C(C)Cn1c(Cc2ccccc2)nnc1SC(C)C` [CBK200083] it is 92%.
As to `C=C(C)Cn1c(SCC(C)C)nnc1-c1cccs1` [CBK200086], the viability at 28.5 h, 10 µM was found to be 96.5%.
The value for `C=C(C)Cn1c(Cc2c[nH]c3ccccc23)nnc1SCC(C)C` [CBK200087T] was 98.6%.
The value for `Cc1ccccc1-c1nnc2n1CCCN2` [CBK200089] was 115%.
The figure for `C=C(C)Cn1c(SCC(C)C)nnc1-c1ccccc1C(=O)O` [CBK200093] is 90.1%; for `C=C(C)Cn1c(SCC(C)C)nnc1-c1ccc(O)nc1` [CBK200094] it is 92.2%; for `C=C(C)Cn1c(SCC(C)C)nnc1-c1scc(C)c1Cl` [CBK200095] it is 92.7%.
Regarding `C=C(C)Cn1c(SCC(C)C)nnc1-c1ccccc1C(=O)NC(C)C` [CBK200096], the viability at 28.5 h, 10 µM stood at 87.8%.
The figure for `CC(C)Cc1nnc(-c2ccccc2Cl)n1CC1CC1` [CBK200097] is 98.1%.
The value for `COc1cc(C(O)c2cc3c(cc2CO)OCO3)cc(OC)c1OC` (centres unmarked) [CBK200098] was 100%.
The value for `COC(=O)C1C(=O)c2cc3c(cc2C1c1cc(OC)c(OC)c(OC)c1)OCO3` (centres unmarked) [CBK200099] was 92.5%; that for `COc1ccc(C(C)c2cc3c(cc2O)OCO3)cc1` (centres unmarked) [CBK200100] was 90.3%.
For the molecule `COc1ccc(C(C)c2cc3c(cc2O)OCO3)c(F)c1` (centres unmarked) [CBK200101], the viability at 28.5 h, 10 µM stood at 98.1%.
The figure for `COc1ccc(C(C)c2cc3c(cc2N)OCO3)cc1` (centres unmarked) [CBK200102T] is 87.2%.
Regarding `COC(=O)[C@H]1Cc2cc3c(cc2[C@H]1c1cc(OC)c(OC)c(OC)c1)OCO3` [CBK200105], the viability at 28.5 h, 10 µM worked out at 54.8%.
The figure for `COc1cc([C@@H]2c3cc4c(cc3[C@H](O)[C@H]2C(=O)Nc2ccccc2)OCO4)cc(OC)c1OC` [CBK200106] is 101%.
The value for `COc1cc(C(C)c2cc3c(cc2OCC(=O)O)OCO3)cc(OC)c1OC` (centres unmarked) [CBK200109] was 90.5%.
Take `COc1ccc(C(C)c2cc3c(cc2OCCO)OCO3)c(F)c1` (centres unmarked) [CBK200111]: the viability at 28.5 h, 10 µM is 60.4%.
The value for `COc1ccc(C(C)c2cc3c(cc2OC)OCO3)c(F)c1` (centres unmarked) [CBK200112] was 53.3%.
For `O=C(O)Cc1sc(NCCN2CCOCC2)nc1-c1ccccc1` [CBK200113T], the viability at 28.5 h, 10 µM came out at 88.7%.
The figure for `O=C(O)CC1SC(Nc2ccc(F)cc2F)=NC1=O` (centres unmarked) [CBK200115] is 99.3%.
The value for `C[C@@H]1CN(C(=O)c2ccc3[nH]cnc3c2)C[C@H](C)O1` [CBK200120] was 106%; that for `Cc1nc(C(F)(F)F)ccc1COC(=O)N1CCOCC1` [CBK200122] was 85.9%; that for `Cc1cnc(COC(=O)N2C[C@@H](C)O[C@@H](C)C2)cn1` [CBK200124] was 81.4%.
Take `O=C(Nc1cnc2ccccc2c1)OCCc1cccnc1` [CBK200126]: the viability at 28.5 h, 10 µM is 93.5%.
The value for `Cc1cc(COC(=O)Nc2ccc3nc(C)ccc3c2)cc(C)n1` [CBK200127] was 90.5%; that for `Cc1ncccc1COC(=O)Nc1cnc2ccccc2c1` [CBK200128] was 95.9%; that for `CN1CCC(COC(=O)Nc2ccc3cc[nH]c3c2)CC1` [CBK200130] was 98.7%.
The figure for `Cc1cc(COC(=O)N2CCc3ccccc32)cc(C)n1` [CBK200134] is 81.4%.
The value for `Cc1ccc(NC(=O)OCCN2CCN(C)CC2)c(C)n1` [CBK200135] was 106%; that for `Cc1cc(COC(=O)NCc2ccncc2)cc(C)n1` [CBK200136] was 99.4%; that for `Cc1ncccc1COC(=O)NCCc1ccccn1` [CBK200137] was 104%.
For the molecule `Cc1ncccc1COC(=O)N1Cc2ccccc2C1` [CBK200138], the viability at 28.5 h, 10 µM is 91.1%.
The figure for `CN1CCN(CCOC(=O)NCc2ccnc3ccccc23)CC1` [CBK200148] is 94%; for `Cc1cc(COC(=O)N2CCCC(C(F)(F)F)C2)cc(C)n1` (centres unmarked) [CBK200150] it is 92.8%; for `Cc1cc(COC(=O)N2CCCC(F)(F)C2)cc(C)n1` [CBK200151] it is 125%.
The figure for `Cc1cc(COC(=O)N2CCC(CO)CC2)cc(C)n1` [CBK200152] is 91%; for `Cc1cc(COC(=O)N2CCSCC2)cc(C)n1` [CBK200153] it is 107%; for `Cc1ncccc1COC(=O)N1CCC(C(F)(F)F)CC1` [CBK200154] it is 102%.
The value for `Cc1ncccc1COC(=O)N1CCCC(F)C1` (centres unmarked) [CBK200155] was 118%; that for `O=C(OCCc1ccncc1)N1CCC(F)(F)CC1` [CBK200158] was 105%; that for `O=C(OCCc1cccnc1)N1CCSCC1` [CBK200160] was 103%.
